The molecules below were run against JNK3 (Homo sapiens, UniProt P53779) (assay: Measurement of JNK3 enzyme activity). Details: Table 1.
JNK3, sequence (P53779 whole entry, species assumed): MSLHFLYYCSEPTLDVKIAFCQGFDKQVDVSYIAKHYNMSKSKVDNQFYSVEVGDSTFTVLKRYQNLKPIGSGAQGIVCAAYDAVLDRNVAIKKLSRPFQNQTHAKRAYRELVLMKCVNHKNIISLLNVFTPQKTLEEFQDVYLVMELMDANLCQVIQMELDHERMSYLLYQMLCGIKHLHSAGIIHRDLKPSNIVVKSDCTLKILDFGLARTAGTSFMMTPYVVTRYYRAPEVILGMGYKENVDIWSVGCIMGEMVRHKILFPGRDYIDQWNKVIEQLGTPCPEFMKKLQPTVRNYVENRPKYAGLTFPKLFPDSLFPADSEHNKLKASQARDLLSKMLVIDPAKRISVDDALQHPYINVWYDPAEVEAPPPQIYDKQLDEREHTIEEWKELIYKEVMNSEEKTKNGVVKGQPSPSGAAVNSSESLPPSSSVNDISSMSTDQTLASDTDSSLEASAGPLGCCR
Assay type: biochemical
Excerpt: Experimental Example 1. Measurement of JNK3 Enzyme Activity
For `CNC(=O)C1Cc2nc(-c3ccc(F)c(C(F)(F)F)c3)n(-c3ccnc(N[C@@H]4CCN(C(=O)C5CC5)C4)n3)c2C1` (stereo partly drawn) [Compound 25a, 1-(2-(((R)-1-(cyclopropanecarbonyl)pyrrolidine-3-yl)amino)pyrimidin-4-yl)-2-(4-fluoro-3-(trifluoromethyl)phenyl)-N-methyl-1,4,5,6-tetracyclopenta[d]imidazol-5-carboxamide], the IC50 was > 1000 nM.
`NC(=O)C1Cc2nc(-c3ccc(F)c(C(F)(F)F)c3)n(-c3ccnc(NC4CCCN(C(=O)C5CC5)C4)n3)c2C1` (single isomer, unassigned) [Compound 23a] was tested, and the IC50 was > 1000 nM.
`CCOC(=O)C1Cc2nc(-c3ccc(F)c(C(F)(F)F)c3)n(-c3ccnc(N[C@@H]4CCN(C(=O)C5CC5)C4)n3)c2C1` (stereo partly drawn) [Compound 17a, ethyl 1-(2-(((R)-1-(cyclopropanecarbonyl)pyrrolidine-3-yl)amino)pyrimidin-4-yl)-2-(4-fluoro-3-(trifluoromethyl)phenyl)-1,4,5,6-tetracyclopenta[d]imidazol-5-carboxylate] was tested, and the IC50 was < 30 nM.
For `NC(=O)C1Cc2nc(-c3ccc(F)c(C(F)(F)F)c3)n(-c3ccnc(NC4CCCN(C(=O)C5CC5)C4)n3)c2C1` (single isomer, unassigned) [Compound 22a], the IC50 was < 30 nM.
With `NC(=O)C1Cc2nc(-c3ccc(F)c(C(F)(F)F)c3)n(-c3ccnc(N[C@@H]4CCN(C(=O)C5CC5)C4)n3)c2C1` (stereo partly drawn) [Compound 21a, 1-(2-(((R)-1-(cyclopropanecarbonyl)pyrrolidine-3-yl)amino)pyrimidin-4-yl)-2-(4-fluoro-3-(trifluoromethyl)phenyl)-1,4,5,6-tetracyclopenta[d]imidazol-5-carboxamide] the IC50 was > 1000 nM.
`CCOC(=O)C1Cc2nc(-c3ccc(F)c(C(F)(F)F)c3)n(-c3ccnc(N[C@H]4CCCN(C(=O)C5CC5)C4)n3)c2C1` (stereo partly drawn) [Compound 18a, ethyl 1-(2-(((S)-1-(cyclopropanecarbonyl)piperidin-3-yl)amino)pyrimidin-4-yl)-2-(4-fluoro-3-(trifluoromethyl)phenyl)-1,4,5,6-tetracyclopenta[d]imidazol-5-carboxylate] was tested, and the IC50 was < 30 nM.
`CNC(=O)C1Cc2nc(-c3ccc(F)c(C(F)(F)F)c3)n(-c3ccnc(NC4CCCN(C(=O)C5CC5)C4)n3)c2C1` (single isomer, unassigned) [Compound 27a] was tested, and the IC50 was > 1000 nM.
With `CCOC(=O)C1Cc2nc(-c3ccc(F)c(C(F)(F)F)c3)n(-c3ccnc(N[C@@H]4CCCN(C(=O)C5CC5)C4)n3)c2C1` (stereo partly drawn) [Compound 19a, ethyl 1-(2-(((R)-1-(cyclopropanecarbonyl)piperidin-3-yl)amino)pyrimidin-4-yl)-2-(4-fluoro-3-(trifluoromethyl)phenyl)-1,4,5,6-tetracyclopenta[d]imidazol-5-carboxylate] the IC50 was < 30 nM.

Same assay, conditions: Table 2
For `NC(=O)C1Cc2nc(-c3ccc(Cl)c(Cl)c3)n(-c3ccnc(N[C@@H]4CCN(C(=O)C5CC5)C4)n3)c2C1` (stereo partly drawn) [Compound 21b, 1-(2-(((R)-1-(cyclopropanecarbonyl)pyrrolidine-3-yl)amino)pyrimidin-4-yl)-2-(3,4-dichlorophenyl)-1,4,5,6-tetracyclopenta[d]imidazol-5-carboxamide], the IC50 was < 30 nM.
With `CCOC(=O)C1Cc2nc(-c3ccc(Cl)c(Cl)c3)n(-c3ccnc(N[C@@H]4CCN(C(=O)C5CC5)C4)n3)c2C1` (stereo partly drawn) [Compound 17b, ethyl 1-(2-(((R)-1-(cyclopropanecarbonyl)pyrrolidine-3-yl)amino)pyrimidin-4-yl)-2-(3,4-dichlorophenyl)-1,4,5,6-tetracyclopenta[d]imidazol-5-carboxylate] the IC50 was < 30 nM.

Same assay, conditions: Table 3
For `CCOC(=O)C1Cc2nc(-c3ccc4ccccc4c3)n(-c3ccnc(N[C@H]4CCCN(C(=O)C5CC5)C4)n3)c2C1` (stereo partly drawn) [Compound 18c, ethyl 1-(2-(((S)-1-(cyclopropanecarbonyl)piperidin-3-yl)amino)pyrimidin-4-yl)-2-(naphthalen-2-yl)-1,4,5,6-tetracyclopenta[d]imidazol-5-carboxylate], the IC50 was < 30 nM.
`CNC(=O)C1Cc2nc(-c3ccc4ccccc4c3)n(-c3ccnc(N[C@H]4CCCN(C(=O)C5CC5)C4)n3)c2C1` (stereo partly drawn) [Compound 26c, 1-(2-(((S)-1-(cyclopropanecarbonyl)piperidin-3-yl)amino)pyrimidin-4-yl)-2-(naphthalen-2-yl)-N-methyl-1,4,5,6-tetracyclopenta[d]imidazol-5-carboxamide] was tested, and the IC50 was < 30 nM.
`NC(=O)C1Cc2nc(-c3ccc4ccccc4c3)n(-c3ccnc(N[C@@H]4CCN(C(=O)C5CC5)C4)n3)c2C1` (stereo partly drawn) [Compound 21c, 1-(2-(((R)-1-(cyclopropanecarbonyl)pyrrolidine-3-yl)amino)pyrimidin-4-yl)-2-(naphthalen-2-yl)-1,4,5,6-tetracyclopenta[d]imidazol-5-carboxamide] was tested, and the IC50 was < 30 nM.
`CCOC(=O)C1Cc2nc(-c3ccc4ccccc4c3)n(-c3ccnc(N[C@@H]4CCCN(C(=O)C5CC5)C4)n3)c2C1` (stereo partly drawn) [Compound 19c, ethyl 1-(2-(((R)-1-(cyclopropanecarbonyl)piperidin-3-yl)amino)pyrimidin-4-yl)-2-(naphthalen-2-yl)-1,4,5,6-tetracyclopenta[d]imidazol-5-carboxylate] was tested, and the IC50 was < 30 nM.
In the case of `CCOC(=O)C1Cc2nc(-c3ccc4ccccc4c3)n(-c3ccnc(N[C@@H]4CCN(C(=O)C5CC5)C4)n3)c2C1` (stereo partly drawn) [Compound 17c, ethyl 1-(2-(((R)-1-(cyclopropanecarbonyl)pyrrolidine-3-yl)amino)pyrimidin-4-yl)-2-(naphthalen-2-yl)-1,4,5,6-tetracyclopenta[d]imidazol-5-carboxylate], the IC50 is reported as < 30 nM.

Same assay, conditions: Table 4
`NC(=O)C1Cc2nc(-c3ccc4c(c3)OCO4)n(-c3ccnc(N[C@@H]4CCCN(C(=O)C5CC5)C4)n3)c2C1` (stereo partly shown) [Compound 23d] was tested, and the IC50 was < 30 nM.
In the case of `CNC(=O)C1Cc2nc(-c3ccc4c(c3)OCO4)n(-c3ccnc(N[C@@H]4CCN(C(=O)C5CC5)C4)n3)c2C1` (stereo partly shown) [Compound 25d], the IC50 is reported as < 30 nM.
With `NC(=O)C1Cc2nc(-c3ccc4c(c3)OCO4)n(-c3ccnc(N[C@H]4CCCN(C(=O)C5CC5)C4)n3)c2C1` (stereo partly drawn) [Compound 22d, 2-(benzo[d][1,3]dioxol-5-yl)-1-(2-(((S)-1-(cyclopropanecarbonyl)piperidin-3-yl)amino)pyrimidin-4-yl)-1,4,5,6-tetracyclopenta[d]imidazol-5-carboxamide] the IC50 was < 30 nM.
With `NC(=O)C1Cc2nc(-c3ccc4c(c3)OCO4)n(-c3ccnc(N[C@@H]4CCN(C(=O)C5CC5)C4)n3)c2C1` (stereo partly drawn) [Compound 21d, 2-(benzo[d][1,3]dioxol-5-yl)-1-(2-(((R)-1-(cyclopropanecarbonyl)pyrrolidine-3-yl)amino)pyrimidin-4-yl)-1,4,5,6-tetracyclopenta[d]imidazol-5-carboxamide] the IC50 was > 1000 nM.
With `CCOC(=O)C1Cc2nc(-c3ccc4c(c3)OCO4)n(-c3ccnc(N[C@H]4CCCN(C(=O)C5CC5)C4)n3)c2C1` (stereo partly drawn) [Compound 18d, ethyl 2-(benzo[d][1,3]dioxol-5-yl)-1-(2-(((S)-1-(cyclopropanecarbonyl)piperidin-3-yl)amino)pyrimidin-4-yl)-1,4,5,6-tetracyclopenta[d]imidazol-5-carboxylate] the IC50 was < 30 nM.
For `CCOC(=O)C1Cc2nc(-c3ccc4c(c3)OCO4)n(-c3ccnc(N[C@@H]4CCN(C(=O)C5CC5)C4)n3)c2C1` (stereo partly drawn) [Compound 17d, ethyl 2-(benzo[d][1,3]dioxol-5-yl)-1-(2-(((R)-1-(cyclopropanecarbonyl)pyrrolidine-3-yl)amino)pyrimidin-4-yl)-1,4,5,6-tetracyclopenta[d]imidazol-5-carboxylate], the IC50 was < 30 nM.
For `NC(=O)C1Cc2nc(-c3ccc4c(c3)OCO4)n(-c3ccnc(N[C@H]4CCN(C(=O)C5CC5)C4)n3)c2C1` (stereo partly drawn) [Compound 20d, 2-(benzo[d][1,3]dioxol-5-yl)-1-(2-(((S)-1-(cyclopropanecarbonyl)pyrrolidine-3-yl)amino)pyrimidin-4-yl)-1,4,5,6-tetracyclopenta[d]imidazol-5-carboxamide], the IC50 was > 1000 nM.
With `CCOC(=O)C1Cc2nc(-c3ccc4c(c3)OCO4)n(-c3ccnc(N[C@H]4CCN(C(=O)C5CC5)C4)n3)c2C1` (stereo partly drawn) [Compound 16d, ethyl 2-(benzo[d][1,3]dioxol-5-yl)-1-(2-(((S)-1-(cyclopropanecarbonyl)pyrrolidine-3-yl)amino)pyrimidin-4-yl)-1,4,5,6-tetracyclopenta[d]imidazol-5-carboxylate] the IC50 was > 1000 nM.

Same assay, conditions: Table 5
With `CCOC(=O)C1Cc2nc(-c3ccc4c(c3)CCO4)n(-c3ccnc(N[C@@H]4CCN(C(=O)C5CC5)C4)n3)c2C1` (stereo partly drawn) [Compound 17e, ethyl 1-(2-(((R)-1-(cyclopropanecarbonyl)pyrrolidine-3-yl)amino)pyrimidin-4-yl)-2-(2,3-dihydrobenzofuran-5-yl)-1,4,5,6-tetracyclopenta[d]imidazol-5-carboxylate] the IC50 was < 30 nM.
With `NC(=O)C1Cc2nc(-c3ccc4c(c3)CCO4)n(-c3ccnc(N[C@@H]4CCN(C(=O)C5CC5)C4)n3)c2C1` (stereo partly drawn) [Compound 21e, 1-(2-(((R)-1-(cyclopropanecarbonyl)pyrrolidine-3-yl)amino)pyrimidin-4-yl)-2-(2,3-dihydrobenzofuran-5-yl)-1,4,5,6-tetracyclopenta[d]imidazol-5-carboxamide] the IC50 was < 30 nM.
In the case of `CCOC(=O)C1Cc2nc(-c3ccc4c(c3)CCO4)n(-c3ccnc(N[C@@H]4CCCN(C(=O)C5CC5)C4)n3)c2C1` (stereo partly drawn) [Compound 19e, ethyl 1-(2-(((R)-1-(cyclopropanecarbonyl)piperidin-3-yl)amino)pyrimidin-4-yl)-2-(2,3-dihydrobenzofuran-5-yl)-1,4,5,6-tetracyclopenta[d]imidazol-5-carboxylate], the IC50 is reported as < 30 nM.
For `NC(=O)C1Cc2nc(-c3ccc4c(c3)CCO4)n(-c3ccnc(N[C@@H]4CCCN(C(=O)C5CC5)C4)n3)c2C1` (stereo partly drawn) [Compound 23e, 1-(2-(((R)-1-(cyclopropanecarbonyl)piperidin-3-yl)amino)pyrimidin-4-yl)-2-(2,3-dihydrobenzofuran-5-yl)-1,4,5,6-tetracyclopenta[d]imidazol-5-carboxamide], the IC50 was < 30 nM.
In the case of `NC(=O)C1Cc2nc(-c3ccc4c(c3)CCO4)n(-c3ccnc(N[C@H]4CCCN(C(=O)C5CC5)C4)n3)c2C1` (stereo partly drawn) [Compound 22e, 1-(2-(((S)-1-(cyclopropanecarbonyl)piperidin-3-yl)amino)pyrimidin-4-yl)-2-(2,3-dihydrobenzofuran-5-yl)-1,4,5,6-tetracyclopenta[d]imidazol-5-carboxamide], the IC50 is reported as < 30 nM.

Source: US20240299386A1, “Novel imidazole derivatives having protein kinase inhibitory activity and uses thereof” (INDUSTRY-UNIVERSITY COOPERATION FOUNDATION HANYANG …, priority 2021, published 2024)
